This note sets out measurements from paper PMC8658016, “Identification of New Compounds with Anticonvulsant and Antinociceptive Properties in a Group of 3-substituted (2,5-dioxo-pyrrolidin-1-yl)(phenyl)-Acetamides” (International Journal of Molecular Sciences, 2021).

Data set [1] concerns the target T1, CYP2D6 (Homo sapiens, UniProt P10635).
T1 construct: purchased Promega (Madison, WI, USA)
As to the kind of experiment: CYP2D6 P450-Glo luminescent assay. The format is in vitro ADME. The following applies: 1 and 10 µM.

The test system of data set [2] is rats. As to the kind of experiment: Carrageenan-induced paw edema. The class given is in vivo, rat. The following applies: 80 mg/kg. The text has this: To test the anti-inflammatory activity and the potential to attenuate inflammatory pain, we tested compound 14 in the model of carrageenan-induced aseptic inflammation. In this model, the subplantar injection of carrageenan induced an edema, mechanical, and thermal hyperalgesia. […] In our opinion, the most surprising and interesting was the long-lasting anti-edematous effect. It may result from the pharmacokinetic properties of compound 14, but also from its unique mechanism. Since inflammation is one of the critical components of neuropathy, the anti-inflammatory activity of compound 14 may be a valuable and distinctive property from classical ASDs used to treat neuropathic pain [33]. […] The pain threshold reached 87.3%, 90.9%, and 89.7% of its initial value 3, 6, and 24 h after carrageenan injection, respectively. […] The initial latency for compound 14-treated animals was 8.95 ± 0.4 s. The administration of compound 14 changed the values to 127.0%, 102.0%, 79.8%, 83.8%, and 164.4% of the initial value 1, 2, 3, 6-, and 24-h following carrageenan injection, respectively.
The experiments were conducted on adult male Albino Swiss mice (CD-1, 18–25 g) and male Wistar rats (Krf:(WI) WU), 180–250 g) as described previously. The minimum number of animals used needed to obtain definite and normally distributed results with the utilized test. Behavioral measures were scored by trained observers, which were blind to experimental conditions. The following devices were used in the experiments: Analgesy Meter (37215, Ugo Basile), Plantar Test Apparatus (EFV5, Commat Ltd., Turkey), Plethysmometer (Plethysmometer 7140, Ugo Basile), Electronic von Frey unit (BIOSEB, France). All procedures were performed according to the European Union Directive of 22 September 2010 (2010/63/EU) and approved by the Local Ethics Committee for Experiments on Animals in Krakow, Poland (resolution no. 105/2016).
Figure 8 Effect of compound 14 on carrageenan-induced oedema (A), mechanical hyperalgesia (B), and thermal hyperalgesia (C), developed after subplantar injection of 1% carrageenan in rats. Data are expressed as means ± S.E.M. for 6 animals; 0—the initial value considered as the paw volume (A) or nociceptive reaction (B,C) before carrageenan administration. Statistical significance compared to vehicle-treated animals (control): * p < 0.05, ** p < 0.01, *** p < 0.001, **** p < 0.0001. Statistical analysis: two-way ANOVA post hoc Bonferroni test. Statistical significance in different time points of control group: ^# p < 0.05, ^## p < 0.01, ^### p < 0.001. Statistical analysis: one-way ANOVA, followed by Dunnett’s multiple comparison test (GraphPad Prism 8.0.1).
On the technique in general: In the carrageenan paw model, swelling and tenderness develop within hours.

The test system of data set [3] is mice. As to the kind of experiment: Grip strength test (neuromuscular strength). The following applies: 30 min. The format is in vivo, mouse. Here is the method: Figure 3 Acute effect of compound 14 on the neuromuscular strength in mice. Compound 14 was administered i.p. 30 min before the test. Control animals received vehicle only. Each experimental group consisted of 10 animals. Each bar represents the mean + S.E.M. grip strengths in Newtons per gram of mouse body weight (N/g). * p < 0.05 vs. the control group (one-way ANOVA, followed by Dunnett’s post hoc test, GraphPad Prism 8.0.1).
In this study, we used adult male Swiss albino mice (Kołacz, Laboratory Animals Breeding, Warszawa, Poland) license no. 106/2019 (Local Ethical Committee in Lublin). In studies assessing the acute effect of compound 14 on neuromuscular strength, body temperature, and seizure threshold, compound 14 was suspended in a 1% solution of Tween 80 and administered i.p., 30 min before the tests.
The acute effect of compound 14 on neuromuscular strength was quantified using the grip-strength apparatus (BIOSEB, Chaville, France) according to the method described elsewhere.

The target of data set [4] is T2, CYP3A4 (Homo sapiens, UniProt P08684).
T2 construct: purchased Promega (Madison, WI, USA)
As to the kind of experiment: CYP3A4 P450-Glo luminescent assay. The format is in vitro ADME.

The target in data set [5] is T3, TRPV1 (VR1) (h) (Homo sapiens, UniProt Q8NER1).
T3 construct: Cerep Laboratories / Eurofins Panlabs (contract assay)
As to the kind of experiment: TRPV1 (VR1) functional assay, antagonist effect. The format is cell-based. The following applies: HEK293, human recombinant HEK-293 cells, read-out: % Inhibition of Control Agonist Response, TRPV1 (VR1) (h) (antagonist effect).

T2 sequence (P08684 whole entry): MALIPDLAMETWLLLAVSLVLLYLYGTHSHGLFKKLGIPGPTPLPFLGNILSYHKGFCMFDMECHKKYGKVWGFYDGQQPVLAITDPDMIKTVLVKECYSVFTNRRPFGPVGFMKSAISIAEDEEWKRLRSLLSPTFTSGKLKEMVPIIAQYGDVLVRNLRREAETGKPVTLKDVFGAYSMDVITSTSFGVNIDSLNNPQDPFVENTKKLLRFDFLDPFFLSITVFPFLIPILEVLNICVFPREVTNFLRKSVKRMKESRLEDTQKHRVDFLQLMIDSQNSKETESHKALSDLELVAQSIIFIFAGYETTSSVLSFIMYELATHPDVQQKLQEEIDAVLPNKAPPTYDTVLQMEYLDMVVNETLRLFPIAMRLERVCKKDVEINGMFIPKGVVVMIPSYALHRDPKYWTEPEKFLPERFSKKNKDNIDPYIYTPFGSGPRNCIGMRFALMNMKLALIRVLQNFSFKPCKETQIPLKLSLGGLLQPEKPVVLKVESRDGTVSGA
T3 sequence (Q8NER1 whole entry): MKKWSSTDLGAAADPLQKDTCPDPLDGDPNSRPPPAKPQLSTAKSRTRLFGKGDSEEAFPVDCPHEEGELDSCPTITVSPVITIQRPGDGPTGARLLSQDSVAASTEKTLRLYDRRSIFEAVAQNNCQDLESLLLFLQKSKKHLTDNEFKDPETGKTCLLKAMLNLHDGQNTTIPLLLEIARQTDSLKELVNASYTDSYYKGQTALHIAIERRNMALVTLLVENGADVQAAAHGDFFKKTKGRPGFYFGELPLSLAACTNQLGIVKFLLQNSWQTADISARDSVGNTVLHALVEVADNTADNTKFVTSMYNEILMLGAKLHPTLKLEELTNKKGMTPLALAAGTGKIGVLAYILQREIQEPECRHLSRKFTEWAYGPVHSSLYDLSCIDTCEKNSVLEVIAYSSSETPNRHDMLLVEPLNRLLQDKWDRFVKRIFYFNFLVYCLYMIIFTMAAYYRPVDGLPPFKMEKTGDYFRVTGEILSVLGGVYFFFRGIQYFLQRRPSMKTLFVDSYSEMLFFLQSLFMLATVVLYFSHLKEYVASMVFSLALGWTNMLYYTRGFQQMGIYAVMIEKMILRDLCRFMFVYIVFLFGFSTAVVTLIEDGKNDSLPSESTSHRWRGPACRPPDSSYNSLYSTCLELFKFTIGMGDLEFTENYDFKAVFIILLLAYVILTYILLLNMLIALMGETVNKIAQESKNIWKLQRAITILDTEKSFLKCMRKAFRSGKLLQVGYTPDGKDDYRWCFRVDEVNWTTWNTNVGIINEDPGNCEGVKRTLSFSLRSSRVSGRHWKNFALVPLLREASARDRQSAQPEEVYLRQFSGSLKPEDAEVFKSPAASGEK
T1 sequence (P10635 whole entry): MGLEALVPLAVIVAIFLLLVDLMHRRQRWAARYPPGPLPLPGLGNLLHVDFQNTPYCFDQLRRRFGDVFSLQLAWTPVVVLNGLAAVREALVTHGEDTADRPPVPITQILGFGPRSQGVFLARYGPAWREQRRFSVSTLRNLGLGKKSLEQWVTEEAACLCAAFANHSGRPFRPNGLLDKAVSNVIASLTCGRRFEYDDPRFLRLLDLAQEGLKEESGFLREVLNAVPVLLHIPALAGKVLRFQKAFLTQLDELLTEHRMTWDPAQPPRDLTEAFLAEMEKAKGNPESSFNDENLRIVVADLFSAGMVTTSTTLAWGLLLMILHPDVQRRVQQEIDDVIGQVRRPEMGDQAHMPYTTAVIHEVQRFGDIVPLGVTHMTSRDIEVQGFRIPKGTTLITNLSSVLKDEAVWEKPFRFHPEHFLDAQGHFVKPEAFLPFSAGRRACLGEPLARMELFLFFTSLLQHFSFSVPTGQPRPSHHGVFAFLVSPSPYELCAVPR

Consider `CN(C)C1CC(=O)N(C(C(=O)N2CCN(c3cccc(C(F)(F)F)c3)CC2)c2ccccc2)C1=O.Cl` (stereo not shown) [Compound 14, 3-(Dimethylamino)-1-(2-oxo-1-phenyl-2-(4-(3-(trifluoromethyl)phenyl)-piperazin-1-yl)ethyl)pyrrolidine-2,5-dione hydrochloride], for which the melting point lay in the range of 157.8 to 159.2 °C. The “effect on CYP2D6 activity” value in data set [1] was “significant activation”. Also, the “reduction of paw edema” value in data set [2] (1 h after carrageenan) was determined as 36.8%. Besides, the “reduction of paw edema” value in data set [2] (2 h after carrageenan) is 55.8%. Moreover, the “reduction of paw edema” value in data set [2] (3 h after carrageenan) is recorded as 62.9%. The “reduction of paw edema” value in data set [2] (6 h after carrageenan) came out at 68.6%. In addition, the “reduction of paw edema” value in data set [2] (24 h after carrageenan) is reported as 74.3%. Moreover, in data set [3] (30 mg/kg i.p.), the “effect on neuromuscular strength (grip strength)” value is listed as “did not significantly affect”. For the same compound, in data set [3] (60 mg/kg i.p., p < 0.05 (Dunnett)), the “effect on grip strength” value is “significantly decreased”. Also, the “CYP3A4 activity in the presence of the compound” value in data set [4] (10 µM) was “higher than 50%”. In addition, in data set [4] (significant inhibition only at 10 µM and 25 µM (p < 0.0001)), the “CYP3A4 inhibition, classification” value is “moderate inhibitor”. Further, the inhibition at 10 µM in data set [5] (10 µM) is 17.3%. The inhibition at 50 µM in data set [5] (50 µM) stood at 88.8%.

The melting point is the temperature, or range, at which the solid turns liquid. Broadly, the inhibition is the relative decrease from the control value, in per cent.
